According to patent US20210024545A1, “SUBSTITUTED DIAZAHETERO-BICYCLIC COMPOUNDS AND THEIR USE” (Bayer Aktiengesellschaft, priority 2016, published 2021):

Experiments:
[1] = biological target: human TASK-3 (Homo sapiens, UniProt Q9NPC2); assay: Inhibition of recombinant TASK-3 in stably transfected CHO cells, KCl-induced depolarization, voltage-sensitive dye (B-2); format: cell-based; parameters: expressed in transfected cells; host or cells: stably transfected CHO cells; details: depolarization induced by 40 mM potassium chloride, some mean values from multiple determinations
Outline: (§1)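 Stably transfected CHO cells loaded with a voltage-sensitive membrane potential dye. Depolarization was induced with 40 mM KCl, and compound inhibition of it was read by fluorescence. IC50 is the concentration blocking half of the KCl-induced depolarization; some values are means of multiple independent determinations.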

[2] = biological target: human TASK-1 (Homo sapiens, UniProt O14649); assay: Inhibition of recombinant TASK-1 in stably transfected CHO cells, KCl-induced depolarization, voltage-sensitive dye (B-2); format: cell-based; parameters: expressed in transfected cells; host or cells: stably transfected CHO cells; details: depolarization induced by 40 mM potassium chloride, some mean values from multiple determinations
Outline: as §1

Chain of human TASK-1 (O14649 whole entry): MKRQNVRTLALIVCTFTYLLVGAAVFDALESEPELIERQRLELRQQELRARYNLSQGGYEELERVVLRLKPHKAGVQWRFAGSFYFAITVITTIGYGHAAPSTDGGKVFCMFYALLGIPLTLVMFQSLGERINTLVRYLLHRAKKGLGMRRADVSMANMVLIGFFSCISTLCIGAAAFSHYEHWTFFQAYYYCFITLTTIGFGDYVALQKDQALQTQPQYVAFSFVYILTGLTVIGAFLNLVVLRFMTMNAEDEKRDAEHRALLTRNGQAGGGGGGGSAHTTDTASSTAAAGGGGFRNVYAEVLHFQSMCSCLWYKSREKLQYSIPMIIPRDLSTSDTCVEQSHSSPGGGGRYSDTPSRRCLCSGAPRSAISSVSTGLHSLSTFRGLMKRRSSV
Chain of human TASK-3 (Q9NPC2 whole entry): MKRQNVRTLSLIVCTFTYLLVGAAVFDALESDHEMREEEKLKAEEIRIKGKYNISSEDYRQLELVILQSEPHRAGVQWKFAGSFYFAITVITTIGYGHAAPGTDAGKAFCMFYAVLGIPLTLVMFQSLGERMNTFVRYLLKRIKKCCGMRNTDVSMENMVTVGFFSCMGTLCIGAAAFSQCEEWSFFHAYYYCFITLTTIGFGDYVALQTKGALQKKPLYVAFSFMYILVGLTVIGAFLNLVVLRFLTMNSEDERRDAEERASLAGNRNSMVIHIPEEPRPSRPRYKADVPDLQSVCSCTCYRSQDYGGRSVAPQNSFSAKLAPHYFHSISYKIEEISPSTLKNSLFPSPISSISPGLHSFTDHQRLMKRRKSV

Cc1nc(C(=O)N2C3CCC2CN(Cc2c(-c4ccc(Cl)cc4)nc4ccccn24)C3)sc1C [Example 150, (3-{[2-(4-Chlorophenyl)imidazo[1,2-a]pyridin-3-yl]methyl}-3,8-diazabicyclo[3.2.1]oct-8-yl)(4,5-dimethyl-1,3-thiazol-2-yl)methanone]
IC50 [1]: 210 nM | IC50 [2]: 2700 nM

CC(C)NC(=O)N1C2CCC1CN(Cc1c(-c3ccc(Cl)cc3)nc3ccccn13)C2 [Example 154, 3-{[2-(4-Chlorophenyl)imidazo[1,2-a]pyridin-3-yl]methyl}-N-isopropyl-3,8-diazabicyclo[3.2.1]octane-8-carboxamide]
IC50 [1]: 29 nM | IC50 [2]: 130 nM

O=C(Nc1ccccc1F)N1C2CCC1CN(Cc1c(-c3ccc(Cl)cc3)nc3ccccn13)C2 [Example 155, 3-{[2-(4-Chlorophenyl)imidazo[1,2-a]pyridin-3-yl]methyl}-N-(2-fluorophenyl)-3,8-diazabicyclo[3.2.1]octane-8-carboxamide]
IC50 [1]: 210 nM | IC50 [2]: 610 nM

O=C(Nc1c(Cl)cccc1Cl)N1C2CCC1CN(Cc1c(-c3ccc(Cl)cc3)nc3ccccn13)C2 [Example 156, 3-{[2-(4-Chlorophenyl)imidazo[1,2-a]pyridin-3-yl]methyl}-N-(2,6-dichlorophenyl)-3,8-diazabicyclo[3.2.1]octane-8-carboxamide]
IC50 [1]: 15 nM | IC50 [2]: 1200 nM

Cc1cccc(C)c1NC(=O)N1C2CCC1CN(Cc1c(-c3ccc(Cl)cc3)nc3ccccn13)C2 [Example 157, 3-{[2-(4-Chlorophenyl)imidazo[1,2-a]pyridin-3-yl]methyl}-N-(2,6-dimethylphenyl)-3,8-diazabicyclo[3.2.1]octane-8-carboxamide]
IC50 [1]: 7.4 nM | IC50 [2]: 24 nM

CCCCCNC(=O)N1C2CCC1CN(Cc1c(-c3ccc(Cl)cc3)nc3ccccn13)C2 [Example 158, 3-{[2-(4-Chlorophenyl)imidazo[1,2-a]pyridin-3-yl]methyl}-N-pentyl-3,8-diazabicyclo[3.2.1]octane-8-carboxamide]
IC50 [1]: 110 nM | IC50 [2]: 760 nM

Cc1ccccc1NC(=O)N1C2CCC1CN(Cc1c(-c3ccc(Cl)cc3)nc3ccccn13)C2 [Example 159, 3-{[2-(4-Chlorophenyl)imidazo[1,2-a]pyridin-3-yl]methyl}-N-(2-methylphenyl)-3,8-diazabicyclo[3.2.1]octane-8-carboxamide]
IC50 [1]: 220 nM | IC50 [2]: 2900 nM

O=C(Nc1cc(C(F)(F)F)ccc1Cl)N1C2CCC1CN(Cc1c(-c3ccc(Cl)cc3)nc3ccccn13)C2 [Example 160, 3-{[2-(4-Chlorophenyl)imidazo[1,2-a]pyridin-3-yl]methyl}-N-[2-chloro-5-(trifluoromethyl)phenyl]-3,8-diazabicyclo[3.2.1]octane-8-carboxamide]
IC50 [1]: 1000 nM | IC50 [2]: 7600 nM

O=C(Nc1ccc(Cl)cc1)N1C2CCC1CN(Cc1c(-c3ccc(Cl)cc3)nc3ccccn13)C2 [Example 161, N-(4-Chlorophenyl)-3-{[2-(4-chlorophenyl)imidazo[1,2-a]pyridin-3-yl]methyl}-3,8-diazabicyclo[3.2.1]octane-8-carboxamide]
IC50 [1]: 1000 nM | IC50 [2]: 7700 nM

CCc1cccc(C)c1NC(=O)N1C2CCC1CN(Cc1c(-c3ccc(Cl)cc3)nc3ccccn13)C2 [Example 162, 3-{[2-(4-Chlorophenyl)imidazo[1,2-a]pyridin-3-yl]methyl}-N-(2-ethyl-6-methylphenyl)-3,8-diazabicyclo[3.2.1]octane-8-carboxamide]
IC50 [1]: 13 nM | IC50 [2]: 53 nM

Cc1ccc(C)c(NC(=O)N2C3CCC2CN(Cc2c(-c4ccc(Cl)cc4)nc4ccccn24)C3)c1 [Example 163, 3-{[2-(4-Chlorophenyl)imidazo[1,2-a]pyridin-3-yl]methyl}-N-(2,5-dimethylphenyl)-3,8-diazabicyclo[3.2.1]octane-8-carboxamide]
IC50 [1]: 160 nM | IC50 [2]: 1400 nM

O=C(NC1CCCCC1)N1C2CCC1CN(Cc1c(-c3ccc(Cl)cc3)nc3ccccn13)C2 [Example 164, 3-{[2-(4-Chlorophenyl)imidazo[1,2-a]pyridin-3-yl]methyl}-N-cyclohexyl-3,8-diazabicyclo[3.2.1]octane-8-carboxamide]
IC50 [1]: 1000 nM | IC50 [2]: 3100 nM

O=C(Nc1c(F)cccc1F)N1C2CCC1CN(Cc1c(-c3ccc(Cl)cc3)nc3ccccn13)C2 [Example 166, 3-{[2-(4-Chlorophenyl)imidazo[1,2-a]pyridin-3-yl]methyl}-N-(2,6-difluorophenyl)-3,8-diazabicyclo[3.2.1]octane-8-carboxamide]
IC50 [1]: 44 nM | IC50 [2]: 990 nM

Cc1ccc(NC(=O)N2C3CCC2CN(Cc2c(-c4ccc(Cl)cc4)nc4ccccn24)C3)c(C)c1 [Example 167, 3-{[2-(4-Chlorophenyl)imidazo[1,2-a]pyridin-3-yl]methyl}-N-(2,4-dimethylphenyl)-3,8-diazabicyclo[3.2.1]octane-8-carboxamide]
IC50 [1]: 350 nM | IC50 [2]: 3000 nM

CC(C)NC(=O)N1C2COCC1CN(Cc1c(-c3ccc(Cl)cc3)nc3ccccn13)C2 [Example 168, 7-{[2-(4-Chlorophenyl)imidazo[1,2-a]pyridin-3-yl]methyl}-N-isopropyl-3-oxa-7,9-diazabicyclo[3.3.1]nonane-9-carboxamide]
IC50 [1]: 130 nM | IC50 [2]: 1400 nM

Cc1cccc(Cl)c1NC(=O)N1C2COCC1CN(Cc1c(-c3ccc(Cl)cc3)nc3ccccn13)C2 [Example 169, N-(2-Chloro-6-methylphenyl)-7-{[2-(4-chlorophenyl)imidazo[1,2-a]pyridin-3-yl]methyl}-3-oxa-7,9-diazabicyclo[3.3.1]nonane-9-carboxamide]
IC50 [1]: 110 nM | IC50 [2]: 3600 nM

O=C(NC1CC1)N1C2CCC1CN(Cc1c(-c3ccc(Cl)cc3)nc3ccccn13)C2 [Example 170, 3-{[2-(4-Chlorophenyl)imidazo[1,2-a]pyridin-3-yl]methyl}-N-cyclopropyl-3,8-diazabicyclo[3.2.1]octane-8-carboxamide]
IC50 [1]: 64 nM | IC50 [2]: 1200 nM

O=C(Nc1ccccc1Cl)N1C2CCC1CN(Cc1c(-c3ccc(Cl)cc3)nc3ccccn13)C2 [Example 171, N-(2-Chlorophenyl)-3-{[2-(4-chlorophenyl)imidazo[1,2-a]pyridin-3-yl]methyl}-3,8-diazabicyclo[3.2.1]octane-8-carboxamide]
IC50 [1]: 26 nM | IC50 [2]: 1800 nM

CN(C(=O)N1C2CCC1CN(Cc1c(-c3ccc(Cl)cc3)nc3ccccn13)C2)c1ccccc1 [Example 172, 3-{[2-(4-Chlorophenyl)imidazo[1,2-a]pyridin-3-yl]methyl}-N-methyl-N-phenyl-3,8-diazabicyclo[3.2.1]octane-8-carboxamide]
IC50 [1]: 80 nM | IC50 [2]: 5200 nM

O=C(N1CCOCC1)N1C2CCC1CN(Cc1c(-c3ccc(Cl)cc3)nc3ccccn13)C2 [Example 173, (3-{[2-(4-Chlorophenyl)imidazo[1,2-a]pyridin-3-yl]methyl}-3,8-diazabicyclo[3.2.1]oct-8-yl)(morpholin-4-yl)methanone]
IC50 [1]: 32 nM | IC50 [2]: 1700 nM

CC(C)N(C(=O)N1C2CCC1CN(Cc1c(-c3ccc(Cl)cc3)nc3ccccn13)C2)C(C)C [Example 174, 3-{[2-(4-Chlorophenyl)imidazo[1,2-a]pyridin-3-yl]methyl}-N,N-diisopropyl-3,8-diazabicyclo[3.2.1]octane-8-carboxamide]
IC50 [1]: 13 nM | IC50 [2]: 91 nM

CCN(C(=O)N1C2CCC1CN(Cc1c(-c3ccc(Cl)cc3)nc3ccccn13)C2)C1CCCCC1 [Example 175, 3-{[2-(4-Chlorophenyl)imidazo[1,2-a]pyridin-3-yl]methyl}-N-cyclohexyl-N-ethyl-3,8-diazabicyclo[3.2.1]octane-8-carboxamide]
IC50 [1]: 200 nM | IC50 [2]: 43 nM

O=C(N1CCCC1)N1C2CCC1CN(Cc1c(-c3ccc(Cl)cc3)nc3ccccn13)C2 [Example 176, (3-([2-(4-Chlorophenyl)imidazo[1,2-a]pyridin-3-yl]methyl}-3,8-diazabicyclo[3.2.1]oct-8-yl)(pyrrolidin-1-yl)methanone]
IC50 [1]: 10 nM | IC50 [2]: 49 nM

CCN(C(=O)N1C2CCC1CN(Cc1c(-c3ccc(Cl)cc3)nc3ccccn13)C2)c1ccccc1 [Example 177, 3-{[2-(4-Chlorophenyl)imidazo[1,2-a]pyridin-3-yl]methyl}-N-ethyl-N-phenyl-3,8-diazabicyclo[3.2.1]octane-8-carboxamide]
IC50 [1]: 130 nM | IC50 [2]: 4000 nM

CC(C)N(C)C(=O)N1C2CCC1CN(Cc1c(-c3ccc(Cl)cc3)nc3ccccn13)C2 [Example 178, 3-{[2-(4-Chlorophenyl)imidazo[1,2-a]pyridin-3-yl]methyl}-N-isopropyl-N-methyl-3,8-diazabicyclo[3.2.1]octane-8-carboxamide]
IC50 [1]: 17 nM | IC50 [2]: 290 nM

O=C(N1CCCCC1)N1C2CCC1CN(Cc1c(-c3ccc(Cl)cc3)nc3ccccn13)C2 [Example 179, (3-{[2-(4-Chlorophenyl)imidazo[1,2-a]pyridin-3-yl]methyl}-3,8-diazabicyclo[3.2.1]oct-8-yl)(piperidin-1-yl)methanone]
IC50 [1]: 2.9 nM | IC50 [2]: 270 nM

CN(C)C(=O)N1C2CCC1CN(Cc1c(-c3ccc(Cl)cc3)nc3ccccn13)C2 [Example 180, 3-{[2-(4-Chlorophenyl)imidazo[1,2-a]pyridin-3-yl]methyl}-N,N-dimethyl-3,8-diazabicyclo[3.2.1]octane-8-carboxamide]
IC50 [1]: 23 nM | IC50 [2]: 220 nM

CCN(C(=O)N1C2CCC1CN(Cc1c(-c3ccc(Cl)cc3)nc3ccccn13)C2)c1ccc(C)cc1 [Example 181, 3-{[2-(4-Chlorophenyl)imidazo[1,2-a]pyridin-3-yl]methyl}-N-ethyl-N-(4-methylphenyl)-3,8-diazabicyclo[3.2.1]octane-8-carboxamide]
IC50 [1]: 1000 nM | IC50 [2]: 4100 nM
